From paper PMC5466598, “Synthesis, Chemical Characterization and Multiscale Biological Evaluation of a Dimeric-cRGD Peptide for Targeted Imaging of αVβ3 Integrin Activity” (Scientific Reports, 2017)
Where two headings read alike, the source gives them in different places.

How the values were obtained:
[1] = Biodistribution by gamma well counting at 90 min post-injection; type: in vivo, Lewis rats; settings: Lewis, rat, iv, total radioactivity, 90 min after intravascular injection
Experimental: To assess blood clearance and organ uptake dynamic in vivo PET-CT imaging was performed followed by image processing and analysis. Lewis rats (n = 6, Harlan Inc.) were anesthetized with 2% isoflurane, the neck area was shaved and a jugular vein cut-down procedure was performed to insert a PE-50 […] catheter for radiotracer injection. Animals were then placed in supine position on the polyacrylic imaging bed of a small animal dedicated PET-CT scanner (Inveon, Siemens Healthcare, USA). At the time of PET acquisition, animals were injected with ~22.2 MBq of (7) via the jugular vein catheter over 30 s followed by bolus infusion of 0.2 mL sterile saline. Animals underwent 60 min dynamic PET imaging (15% energy window centered at 511 keV) followed by anatomical X-ray CT imaging (80 keV, 500 μA, 100 μm spatial resolution).
For biodistribution studies, all animals were euthanized at 90 min post-injection and selected organ samples were collected for gamma well counting analysis. All collected sections were weighed and the tissue radioactivity was measured with Wizard^2 gamma well counter (Perkin-Elmer, USA). Measured ^64Cu activity was corrected for background, decay time, and tissue weight.

[2] = In vivo stability / metabolism (HPLC of urine and feces); parameters: species or system Lewis rats
Experimental: Following dynamic PET-CT imaging, both urine and feces samples were collected to assess radiotracer’s metabolism and excretion route. The urine samples were collected at 90 min post injection by manual void, mixed at 1:1 ratio (v/v) with 50% CH3 CN and centrifuged at 5000 rpm. The supernatant was collected, analyzed by HPLC (C18 column, flow 1 mL/min, CH3 OH/H2 O, 5/95, v/v), and chromatograms compared to reference samples of (7) and ^64Cu-acetate. Feces samples were collected at 90 min post injection, suspended in 50% CH3 CN, homogenized and centrifuged at 5000 rpm. The supernatant was filtered and analyzed by RP-HPLC.

[3] = target: α V β 3 receptor; settings: cited from earlier work; for Kd: comparison values quoted in discussion, no reference given, read-out: binding affinity (Kd); for k off: dissociation from α V β 3 receptor
[4] = target: T1, αVβ3 integrin on human umbilical vein endothelial cells (HUVEC) (human (endogenous in HUVEC)), P06756; experiment: radioligand binding; HUVEC pretreated with Mn2+ (20 μM) for 10 min, washed, then (7) 0-100 nM for 1 h at room temperature; gamma well counting; settings: remark: other sources report otherwise
T1 chain 1: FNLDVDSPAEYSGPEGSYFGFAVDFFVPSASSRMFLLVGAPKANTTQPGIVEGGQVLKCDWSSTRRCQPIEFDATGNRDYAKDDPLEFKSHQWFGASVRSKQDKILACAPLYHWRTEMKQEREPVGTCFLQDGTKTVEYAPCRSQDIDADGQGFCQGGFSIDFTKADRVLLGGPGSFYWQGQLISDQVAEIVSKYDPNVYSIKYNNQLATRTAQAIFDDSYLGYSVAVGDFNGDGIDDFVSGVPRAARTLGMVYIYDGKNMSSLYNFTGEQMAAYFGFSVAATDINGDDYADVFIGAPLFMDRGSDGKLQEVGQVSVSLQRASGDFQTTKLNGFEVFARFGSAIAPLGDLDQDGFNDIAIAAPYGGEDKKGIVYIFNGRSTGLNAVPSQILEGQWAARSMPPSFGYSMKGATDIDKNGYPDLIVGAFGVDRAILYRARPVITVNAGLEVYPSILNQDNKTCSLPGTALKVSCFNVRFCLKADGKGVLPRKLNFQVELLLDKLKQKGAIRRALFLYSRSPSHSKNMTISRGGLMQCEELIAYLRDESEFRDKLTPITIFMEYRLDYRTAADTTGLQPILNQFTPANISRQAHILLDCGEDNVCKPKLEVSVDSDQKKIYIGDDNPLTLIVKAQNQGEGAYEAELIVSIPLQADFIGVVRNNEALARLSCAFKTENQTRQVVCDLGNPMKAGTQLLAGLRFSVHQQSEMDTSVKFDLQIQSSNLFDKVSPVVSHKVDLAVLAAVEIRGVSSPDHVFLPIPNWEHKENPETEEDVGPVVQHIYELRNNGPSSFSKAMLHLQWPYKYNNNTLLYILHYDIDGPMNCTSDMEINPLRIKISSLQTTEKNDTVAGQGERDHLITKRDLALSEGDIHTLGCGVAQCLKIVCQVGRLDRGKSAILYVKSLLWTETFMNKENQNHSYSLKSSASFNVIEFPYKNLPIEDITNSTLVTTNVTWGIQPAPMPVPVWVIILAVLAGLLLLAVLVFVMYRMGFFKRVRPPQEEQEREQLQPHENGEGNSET
T1 chain 2: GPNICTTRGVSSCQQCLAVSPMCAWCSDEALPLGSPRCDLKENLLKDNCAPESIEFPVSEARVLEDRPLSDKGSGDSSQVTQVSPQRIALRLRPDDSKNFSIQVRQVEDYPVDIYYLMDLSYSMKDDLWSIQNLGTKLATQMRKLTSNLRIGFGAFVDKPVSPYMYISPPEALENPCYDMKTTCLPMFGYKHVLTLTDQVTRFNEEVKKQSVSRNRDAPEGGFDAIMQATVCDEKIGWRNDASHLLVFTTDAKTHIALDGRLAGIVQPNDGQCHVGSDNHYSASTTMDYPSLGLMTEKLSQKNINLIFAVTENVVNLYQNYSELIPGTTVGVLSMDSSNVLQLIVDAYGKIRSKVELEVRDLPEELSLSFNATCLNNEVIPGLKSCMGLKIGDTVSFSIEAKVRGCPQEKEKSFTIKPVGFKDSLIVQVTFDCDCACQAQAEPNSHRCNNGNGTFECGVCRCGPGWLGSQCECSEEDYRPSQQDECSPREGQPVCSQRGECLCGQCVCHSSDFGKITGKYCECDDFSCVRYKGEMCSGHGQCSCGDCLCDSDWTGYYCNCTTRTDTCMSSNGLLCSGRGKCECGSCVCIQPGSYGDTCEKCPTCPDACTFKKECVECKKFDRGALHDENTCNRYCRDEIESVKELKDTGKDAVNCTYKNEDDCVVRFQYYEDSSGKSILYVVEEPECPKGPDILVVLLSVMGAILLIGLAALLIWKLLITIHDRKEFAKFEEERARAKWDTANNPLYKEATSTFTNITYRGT

[5] = target: T1, αVβ3 integrin on human umbilical vein …; experiment: flow cytometry on cells; HUVEC pretreated with Mn2+ (20 μM) for 10 min, washed, then (8) 0-200 nM for 1 h at room temperature; settings: remark: other sources report otherwise

Molecule: N=C(N)NCCC[C@@H]1NC(=O)[C@H](CCCCNC(=O)COCCOCCn2cc(CNC(=O)CC[C@H](NC(=O)CCOCCOCCOCCOCCNC(=S)Nc3ccc(CC4CN(CC(=O)O)CCN(CC(=O)O)CCN4CC(=O)O)cc3)C(=O)NCc3cn(CCOCCOCC(=O)NCCCC[C@@H]4NC(=O)[C@@H](Cc5ccccc5)NC(=O)[C@H](CC(=O)O)NC(=O)CNC(=O)[C@H](CCCNC(=N)N)NC4=O)nn3)nn2)NC(=O)[C@@H](Cc2ccccc2)NC(=O)[C@H](CC(=O)O)NC(=O)CNC1=O (stereo partly shown) [compound 7]
- tissue uptake at […] ([1]; intestines, read-out: uptake in intestines): 4.62 ± 0.24 %ID/g
- tissue uptake at […] ([1]; kidney cortex, read-out: uptake in kidney cortex): 11.1 ± 2.2 %ID/g
- tissue uptake at […] ([1]; kidney medulla, read-out: uptake in kidney medulla): 3.66 ± 0.4 %ID/g
- tissue uptake at […] ([1]; lungs, read-out: uptake in lungs): 2.95 ± 0.43 %ID/g
- tissue uptake at […] ([1]; spleen, read-out: uptake in spleen): 2.25 ± 0.33 %ID/g
- activity in the feces ([2]; feces collected at 90 min post injection, RP-HPLC): no detectable activity
- fraction remaining intact in the urine ([2]; urine collected at 90 min post injection, HPLC): more than 90%

Molecule: fibrinogen
- Kd [3]: 27 nM
- k off [3]: 0.00098 s⁻¹

Molecule: vibronectin: classical adhesive protein
- Kd [3]: 64 nM
- k off [3]: 0.00021 s⁻¹

B1: 64Cu-NOTA-PEG4-cRGD2 (7) (peptide)
chain: cyclo(RGDFK)
modifications: also: cyclic RGD dimer: each peptide via N3-PEG2 triazole on Glu bis-propargyl amide, PEG4, NOTA, 64Cu
- increase of binding against HUVECs without Mn2+ [4]: 78%

B2: FITC-PEG4-cRGD2 (8) (peptide)
chain: cyclo(RGDFK)
modifications: also: cyclic RGD dimer: each peptide via N3-PEG2 triazole on Glu bis-propargyl amide, PEG4, fluorescein (from FITC)
- increase of binding against HUVECs without Mn2+ [5]: 78%
